Data published in the NIST ThermoML archive (doi:10.1021/acs.jced.5b00922).

Key:
[1] = Liquid; for viscosity: Capillary tube (Ostwald / Ubbelohde) method; for mass density: Pycnometric method
[2] = mn = molality of the nth substance listed, in mol/kg; conditions: 100 kPa, Liquid, m1 = 4.416; for viscosity: Capillary tube (Ostwald / Ubbelohde) method; for mass density: Pycnometric method; for binary diffusion coefficient: absorption column
[3] = wn = mass fraction of the nth substance listed; conditions: 100 kPa, Liquid; for viscosity: Capillary tube (Ostwald / Ubbelohde) method; for mass density: Pycnometric method

CN(CCO)CCO [N-methyldiethanolamine]
[1], 100 kPa
Conditions | mass density [kg/m3] | viscosity [mPa·s]
298 K | 1036.7 | 77.6
308 K | 1029.4 | 44.33
323 K | 1018.5 | 22.3

CN(CCO)CCO [N-methyldiethanolamine] + O
[2]
Conditions | binary diffusion coefficient [m2/s] | mass density [kg/m3] | viscosity [mPa·s]
298 K | 8.2e-10 | 1036.91 | 3.851
303 K | 9.5e-10 | 1034.27 | 3.22
308 K | 1.09e-09 | 1030.94 | 2.7
313 K | 1.24e-09 | 1027.61 | 2.215
318 K | 1.37e-09 | 1024.05 | 1.89
323 K | 1.54e-09 | 1020.68 | 1.62

[3]
Conditions | mass density, w1 = 0.1 [kg/m3] | mass density, w1 = 0.2 [kg/m3] | mass density, w1 = 0.3 [kg/m3] | mass density, w1 = 1 [kg/m3] | viscosity, w1 = 0.1 [mPa·s] | viscosity, w1 = 0.2 [mPa·s] | viscosity, w1 = 0.3 [mPa·s] | viscosity, w1 = 1 [mPa·s]
298 K | 1005.7 | 1015 | 1024.6 | 1036.7 | 1.295 | 1.925 | 3.031 | 77.6
308 K | 1001.9 | 1010.9 | 1020.2 | 1029.4 | 1.007 | 1.468 | 2.251 | 44.33
323 K | 995.9 | 1003.4 | 1012 | 1018.5 | 0.748 | 1.033 | 1.491 | 22.3

NCCCNCCCN [bis(3-aminopropyl)amine]
[1], 101.33 kPa
Conditions | mass density [kg/m3] | viscosity [mPa·s]
298 K | 927.36 | 8.51
303 K | 923.34 | 7.04
308 K | 919.32 | 5.92
313 K | 915.28 | 5.05
318 K | 911.18 | 4.62
323 K | 906.97 | 3.99
